Assay: xn = mol fraction of the nth substance listed
Details: 100 kPa

[Cl-].c1c[nH+]c[nH]1 + OCC(O)CO
viscosity [mPa·s]
Details	293.2 K	303.2 K	313.2 K	323.2 K	333.2 K	343.2 K	353.2 K
x1 = 0.1667	565	397	–	196	149.3	127.7	116.4
x1 = 0.25	429	294	207	–	60.9	37.7	24.8
x1 = 0.3333	321	219	–	–	49.6	31.2	20.6
x1 = 0.5	472	355	285	141.2	–	–	38.2

Reference: a compilation of properties of binary mixtures (doi:10.1016/j.molliq.2021.116463)
